Patent publication US20020193424A1, “Human cancerous cell anti-proliferation and survival inhibition agent” (priority 2000, published 2002)

Experiments:
[1] = human, in vivo; cited from earlier work
[2] = test system: Human prostate carcinoma DU145 cells; test: Percent cell death of DU145 cells; assay type: cell-based; conditions: 10% FBS, 50, 100 and 200 micromolars, 48 and 72 hours, compared with control and silymarin
Method: (§1) 1. Cells and Culture Conditions. Human prostate carcinoma DU145 cells were obtained from American Type Culture Collection (Bethesda, Md.), and cultured in RPMI 1640 containing 10% fetal bovine serum (FBS) and 1% penicillin-streptomycin under standard culture conditions. Alternatively, DU145 cells were cultured in 10% charcoal/dextran stripped FBS (cFBS) and 1% penicillin-streptomycin in the presence or absence of 1 nM DHT.
(§2) Silymarin and Silibinin derivatives were dissolved in ethanol for all the treatments. […] The dose and time of silibinin derivatives treatment are depicted in the associated drawings.
(§3) 2. Results. Referring to FIGS. 3 through 6, for the studies assessing the effect of silibinin derivatives on FBS-stimulated cell growth and cell death, DU145 cells were plated at 1×10^5 cells per 60 mm plate in RPMI 1640 containing 10% FBS and treated with either ethanol alone or varying concentrations of silymarin (“Si”) and silibinin derivatives (“D1” and “D2”) (50, 100 and 200 micromolars). Cells were counted at 48 and 72 hours after treatment with the subject compounds.
(§4) At the counting intervals, cells were trypsinized and collected in counting vials. Each plate was washed thoroughly with isotonic buffer containing 0.1% formalin and washings were collected in the original vials with trypsinized cells. Each vial was counted using Coulter Counter to determine the total cell number.

[3] = test system: Human prostate carcinoma DU145 cells; test: FBS-stimulated cell growth of DU145 cells (total cell number, Coulter Counter); assay type: cell-based; conditions: 10% FBS, 50, 100 and 200 micromolars, counted at 48 and 72 hours, compared with control and silymarin
Method: as §1, §2, §3, §4

Substance | tolerability / adverse effects [1] | percentage of cell death [2] | inhibition of cell growth [3]
Silymarin | well tolerated and largely free of adverse effects | – | –
2,3-Dihydro-3-[3,4-dimethoxyphenyl]-2-[hydroxymethyl]-5,7-dimethoxy-4-oxobenzopyran-2-yl]benzodioxin [Derivative #1] | – | likewise improved percentage of cell death | remarkably improved inhibition of cell growth over the control and silymarin
